# Experimental data: patent US9918966B2, “Anti-cancer compositions and methods” (The Penn State Research Foundation, priority 2013, dated 2018)
# Where two headings read alike, the source gives them in different places.
# Experiments:
# [1] = test system: FF2441 human fibroblast cells; assay: Cell viability, MTS assay; type: cell-based
# Procedure: (§1) Cell viability, proliferation, apoptosis and cell cycle analysis: Viability and IC50 (μmol/L) of normal human melanocytes, fibroblast and melanoma cells following treatment with inhibitors are measured using the MTS assay (Promega, Madison, Wis.) described in Sharma A, et al., Clin Cancer Res 2009; 15:1674-85; and Madhunapantula S V, et al., Mol Cancer Ther 2008; 7:1297-308. […] IC50 values for each inhibitor in μmol/L for respective cell lines are measured from three independent experiments using GraphPad Prism version 4.01 (GraphPad Software, La Jolla, Calif.).
# (§2) The number of viable cells is measured using MTS and percentage decrease in viability calculated. IC50 values for each inhibitor in μmol/L for respective cell lines are measured from three independent experiments using GraphPad Prism version 4.01 (GraphPad Software, La Jolla, Calif.).
# [2] = test system: FOM103 normal human melanocytes; assay: Cell viability, MTS assay; type: cell-based; conditions: Melanocyte
# Procedure: as §1, §2
# [3] = test system: WM115 vertical growth phase melanoma cells; assay: Cell viability, MTS assay; type: cell-based; conditions: Homo sapiens, WM-115
# Procedure: as §1, §2
# [4] = test system: WM35 radial growth phase melanoma cells; assay: Cell viability, MTS assay; type: cell-based; conditions: Homo sapiens
# Procedure: as §1, §2
# [5] = test system: 1205 Lu metastatic melanoma cells; assay: cells; conditions: Homo sapiens
# Procedure: as §1, §2
# [6] = test system: UACC 903 metastatic melanoma cells; assay: cells; conditions: Homo sapiens
# Procedure: as §1, §2
# Caco-2 (Colon) = assay: IC50 for killing cancer cells; type: cell-based; conditions: Homo sapiens
# Excerpt: (§3) Therapeutic universality of selenocoxib-1-GSH for killing cancer cells is examined by treating pancreatic (MiaPaca-2), breast (MDA-MB-231), prostate (PC-3) or sarcoma (HT-1080) and colon (Caco2) cell. lines with the drug and establishing the IC50 for each cell line, Table III. Selenocoxib-1-GSH kills the various cancer cell lines at 2-3-fold lower concentrations than normal fibroblast cells.
# HT-1080 (Fibro sarcoma) = assay: IC50 for killing cancer cells; type: cell-based; conditions: Homo sapiens
# Excerpt: as §3
# MDA-MB-231 (Breast) = assay: IC50 for killing cancer cells; type: cell-based; conditions: Homo sapiens
# Excerpt: as §3
# MiaPaca-2 (Pancreas) = assay: IC50 for killing cancer cells; type: cell-based; conditions: Homo sapiens, MIA PaCa-2
# Excerpt: as §3
# PC-3 (Prostate) = assay: IC50 for killing cancer cells; type: cell-based; conditions: Homo sapiens
# Excerpt: as §3
# 1205 Lu melanoma cells = assay: Western blot analysis; type: cell-based, human; conditions: 2.5-50 μmol/L for 48 h
# Excerpt: (§4) Cell lysates are harvested and processed as described in Sharma A et al., Cancer Res 2006, 66:8200-9. […] Protein lysates are collected for Western blotting. Blots are probed with total and phospho-Akt (Ser473), phospho-PRAS40 (Thr246), phospho-Erk1/2 (Thr202/Tyr204), total and Phospho-Mek1/2 (Ser217) and cleaved PARP from Cell Signaling Technology (Danvers, Mass.). Total PRAS40 from Invitrogen (Carlsbad, Calif.). Total Erk, cyclin D1, p27, Alpha-enolase and secondary antibodies conjugated with horseradish peroxidase from Santa Cruz Biotechnology (Santa Cruz Biotechnology, Santa Cruz, Calif.). COX-1 and COX-2 antibodies were obtained from Cayman Chemical Company, Ann Arbor, Mich. Immunoblots are developed using the enhanced chemiluminescence detection system (Amersham Pharmacia Biotech, Piscataway, N.J.).
# UACC 903 melanoma cells = assay: Western blot analysis; type: cell-based, human; conditions: UACC 903, 2.5-50 μmol/L for 48 h
# Excerpt: as §4
# [7] = for Mortality at Day 7: 3 mice/group
# Excerpt: Number of mice surviving and changes in body weight after 7 days of drug treatment is scored (Table I).
# [8] = 0.032 μmoles (2.5 PPM) intraperitoneally daily for seven days
compound,measurement,setting,value
"Cc1ccc(-c2cc(C(F)(F)F)nn2-c2ccc(S(N)(=O)=O)cc2)cc1 [Celecoxib, reference compound]",IC50,"[1]; FF2441, 24 h",> 100 µM
same,IC50,"[1]; FF2441, 48 h",> 100 µM
same,IC50,"[1]; FF2441, 72 h",65.3 ± 3.3 µM
same,IC50,"[2]; FOM103, 24 h",> 100 µM
same,IC50,"[2]; FOM103, 48 h",> 100 µM
same,IC50,"[2]; FOM103, 72 h",68 ± 1.2 µM
same,IC50,"[3]; WM115, 24 h",54.4 ± 3.6 µM
same,IC50,"[3]; WM115, 48 h",45.3 ± 2.7 µM
same,IC50,"[3]; WM115, 72 h",41.8 ± 2.9 µM
same,IC50,"[4]; WM35, 24 h",51.3 ± 2.3 µM
same,IC50,"[4]; WM35, 48 h",42.3 ± 1.8 µM
same,IC50,"[4]; WM35, 72 h",37.9 ± 3.3 µM
same,IC50,[5]; 24 h,> 100 µM
same,IC50,[5]; 48 h,83.6 ± 3.3 µM
same,IC50,[5]; 72 h,66.1 ± 3.2 µM
same,IC50,"[6]; UACC-903, 24 h",> 100 µM
same,IC50,"[6]; UACC-903, 48 h",> 100 µM
same,IC50,"[6]; UACC-903, 72 h",76.6 ± 4.4 µM
same,IC50,Caco-2 (Colon),> 100 µM
same,IC50,HT-1080 (Fibro sarcoma),> 100 µM
same,IC50,MDA-MB-231 (Breast),> 100 µM
same,IC50,MiaPaca-2 (Pancreas),> 100 µM
same,IC50,PC-3 (Prostate),> 100 µM
"N#CC(=C(/N)Sc1ccccc1N)/C(C#N)=C(\N)Sc1ccccc1N [U0126, reference compound]",COX-1 expression,1205 Lu melanoma cells,without affecting COX-1
same,COX-2 expression,1205 Lu melanoma cells,reduces the expression of COX-2
same,Levels of pErk1/2,1205 Lu melanoma cells,similarly decrease
same,COX-1 expression,UACC 903 melanoma cells,without affecting COX-1
same,COX-2 expression,UACC 903 melanoma cells,reduces the expression of COX-2
same,Levels of pErk1/2,UACC 903 melanoma cells,similarly decrease
Selenocoxib-1,% of weight loss,[7]; [8],14.07%
same,Mortality at Day 7,[7]; [8],0/3
same,% of weight loss,"[7]; 0.032 μmoles (2.5 PPM) intraperitoneally daily for seven days, listed as selenocoxib-1",14%
same,Mortality at Day 7,[7]; 0.064 μmoles (5.0 PPM) intraperitoneally daily for seven days,3/3
same,animal mortality,"[7]; concentrations of 0.032-0.064, after seven days of treatment",100%
